The conditions of data set [1]: reported value; cited from earlier work.
The next data set relates to A549 cells. As to conditions: cited from earlier work.
Data set [2] relates to A549 cells (human lung carcinoma). The experiment in a line: MTT cytotoxicity assay, A549. It counts as cell-based. The protocol: (§1) The α-lipoic acid (LA) and the functionalized N^∧N-LA ligand were also evaluated for comparison. […]
(§2) Cell lines and culture conditions
(§3) A549, A549R, MCF-7, A2780, HeLa and LO2 cells were obtained from Experimental Animal Center of Sun Yat-Sen University (Guangzhou, China). Cells were routinely cultured in DMEM (Dulbecco’s modified Eagle’s medium, Gibco BRL) or RPMI 1640 (Roswell Park Memorial Institute medium 1640, Gibco BRL) medium containing 10% FBS (fetal bovine serum, Gibco BRL), 100 μg/mL streptomycin, and 100 U/mL penicillin (Gibco BRL). The cells were cultured in tissue culture flasks in a humidified incubator (BB 150 CO2 incubator, Thermo Fisher Scientific, USA), which provided an atmosphere of 5% CO2 and 95% air at a constant temperature of 37 °C. Cisplatin-resistant A549R […]
(§4) cells were cultured in RPMI 1640 with additional cisplatin to maintain the drug resistance.
(§5) Cytotoxicity assay (MTT assay)
(§6) The cytotoxicity of LA, N^N-LA and complexes synthesized towards various cancer cell lines was determined by MTT assay. After plating 5000 cells per well in 96-well plates, the cells were pre-incubated in drug-free media for 24 h at 37 °C to grow to confluence. The complexes were dissolved in DMSO (1%, v/v) just before the experiments, and diluted with fresh media immediately. Then, cells […]
(§7) that, 20 μL of MTT solution (5 mg/mL) was added to each well, and the plates were incubated for an additional 4 h. The medium was carefully removed and 150 μL DMSO was added per well. The plates were incubated for 10 min with shaking. The absorbance at 595 nm was measured using a microplate reader (LabServ K3, Part of Thermo Fisher Scientific, USA). Each well was triplicated to gain the mean values. IC 50 values quoted are mean ± SEM. […]

The subject of data set [3] is A549R cells (cisplatin-resistant A549). The experiment in a line: MTT cytotoxicity assay, A549R. In kind it is cell-based, human. Here is the method: as §1, §2, §3, §4, §5
(§8) The cytotoxicity of LA, N^N-LA and complexes synthesized towards various cancer cell lines was determined by MTT assay. After plating 5000 cells per well in 96-well plates, the cells were pre-incubated in drug-free media for 24 h at 37 °C to grow to confluence. The complexes were dissolved in DMSO (1%, v/v) just before the experiments, and diluted with fresh media immediately. Then, cells were incubated with a series of different concentrations of the tested complexes for 44 h at 37 °C. After that, 20 μL of MTT solution (5 mg/mL) was added to each well, and the plates were incubated for an additional 4 h. The medium was carefully removed and 150 μL DMSO was added per well. The plates were incubated for 10 min with shaking. The absorbance at 595 nm was measured using a microplate reader (LabServ K3, Part of Thermo Fisher Scientific, USA). Each well was triplicated to gain the mean values. IC 50 values quoted are mean ± SEM. […]
A general note: Tetrazolium dyes change colour on reduction, which living cells bring about.

The subject of data set [4] is MCF-7 cells (human breast carcinoma). The experiment in a line: MTT cytotoxicity assay, MCF-7. In kind it is cell-based. Here is the method:
as §1, §2, §3, §4, §5, §8

For data set [5], the system named is A2780 cells (epithelial ovarian carcinoma). The experiment in a line: MTT cytotoxicity assay, A2780. In kind it is cell-based. Here is the method: as §1, §2, §3, §4, §5, §8
Data set [6] deals with HeLa cells (human cervical carcinoma). Kind of data set: MTT cytotoxicity assay, HeLa. It counts as cell-based. The protocol:
as §1, §2, §3, §4, §5, §6, §7

The subject of data set [7] is LO2 cells (human normal liver). The experiment in a line: MTT cytotoxicity assay, LO2. In kind it is cell-based. Here is the method:
as §1, §2, §3, §4, §5, §8

Data set [8] has as its system A549 cells (human lung carcinoma). Further details: method as in earlier work. The settings on record: 24 h incubation; ref 29 (supplementary reference 9); cited from earlier work.
Data set [9] relates to MCF-7 cells (human breast carcinoma). Further details: method as in earlier work. The settings on record: 24 h incubation; ref 29 (supplementary reference 9); cited from earlier work.
Data set [10] shares this test system. Kind of data set: MTT cytotoxicity assay, MCF-7. In kind it is cell-based. The settings on record: 24 h incubation.
The subject of data set [11] is HeLa cells (human cervical carcinoma). Also noted: method as in earlier work. The settings on record: 24 h incubation; ref 29 (supplementary reference 9); cited from earlier work.
The test system of the next data set is tested cancer cell lines. Kind of data set: MTT cytotoxicity assay, summary over the tested cell lines. It counts as cell-based. The settings on record: Homo sapiens, 48 h, read-out: IC50 over all tested cancer cell lines. The protocol: as §1, §2, §3, §4, §5
The cytotoxicity of LA, N^N-LA and complexes synthesized towards various cancer cell lines was determined by MTT assay. After plating 5000 cells per well in 96-well plates, the cells were pre-incubated in drug-free media for 24 h at 37 °C to grow to confluence. […] The absorbance at 595 nm was measured using a microplate reader (LabServ K3, Part of Thermo Fisher Scientific, USA). […]

The mark [12] stands for this setting: Homo sapiens, A549, 48 h incubation.

We go through five compounds from PMC9049077, “Unveiling the anti-cancer mechanism for half-sandwich and cyclometalated Ir(III)-based complexes with functionalized α-lipoic acid” (RSC Advances, 2020).

What is called IC50 is the concentration needed to halve the response being measured.

Read-outs that look alike come from different tables or passages of the source.

For the compound `C(=NC(c1ccccc1)(c1ccccc1)c1ccccc1)c1ccccn1.Cc1c(C)c(C)[c-](C)c1C.F[P-](F)(F)(F)(F)F.[Cl-].[Ir+3]` [[(η^5-Cp*)Ir(N^∧N)Cl]PF6, [(η^5-Cp*)Ir(N^∧N)Cl]PF6 (N^∧N = (triphenylmethyl)(pyridine-2-ylmethylene)amine)], in data set [1], the Hydrolysis rate constant is 0.0084 min⁻¹. Moreover, the “Cellular uptake in A549 cells” value with A549 cells is 4.5 ng per 10^6 cells.
Regarding `N.N.[Cl][Pt][Cl]` [cis-Pt, cisplatin, reference compound], the IC50 is 22.4 ± 1.5 µM in data set [2] (24 h incubation); 10.5 ± 0.63 µM in data set [2] (48 h incubation); 17.9 ± 0.77 µM in [3] (48 h incubation); 8.7 ± 0.57 µM in [4] (48 h incubation); 4.32 ± 0.25 µM in [5] (48 h incubation); 17.9 ± 0.47 µM in data set [6] (24 h incubation). Also, the IC50 is 7.59 ± 0.46 µM in data set [6] (48 h incubation); 3.97 ± 0.25 µM in data set [7] (48 h incubation); 38.6 ± 0.9 µM in [8]; 31.4 ± 3 µM in [9]; 23.5 ± 0.82 µM in data set [10]; 20.2 ± 1.8 µM in [11].
For the compound `O=C(O)CCCCC1CCSS1` (stereo not drawn) [LA, α-lipoic acid], the IC50 in data set [2] (setting [12]) is over 200 µM; in data set [3] (setting [12]), over 200 µM; in [4] (Homo sapiens, MCF7, 48 h incubation), over 200 µM; in data set [5] (Homo sapiens, A2780, 48 h incubation), over 200 µM; in data set [6] (Homo sapiens, HeLa, 48 h incubation), over 200 µM; in data set [7] (Homo sapiens, L02, 48 h incubation), over 200 µM. For the same compound, the IC50 with tested cancer cell lines was over 200 µM.
Turning to `Cc1ccnc(-c2cc(CN)ccn2)c1.F[P-](F)(F)(F)(F)F.[Ir+3].[c-]1ccccc1-c1ccccn1.[c-]1ccccc1-c1ccccn1` [Ir-NH2, [Ir(C^∧N)2(N^∧N-NH2)]PF6], the IC50 in data set [2] (48 h incubation) stood at 11.2 ± 0.65 µM; in [3] (48 h incubation), 19 ± 0.59 µM; in data set [4] (48 h incubation), 11.6 ± 0.48 µM; in data set [5] (48 h incubation), 8.08 ± 0.2 µM; in data set [6] (48 h incubation), 21 ± 0.95 µM; in data set [7] (48 h incubation) it was 8.97 ± 0.55 µM.
Consider `Cc1ccnc(-c2cc(CNC(=O)CCCCC3CCSS3)ccn2)c1` (stereo not drawn) [N^∧N-LA], for which the IC50 in [2] (48 h incubation) was over 200 µM; in [3] (48 h incubation), over 200 µM; in data set [4] (48 h incubation), 139 ± 2.2 µM; in data set [5] (48 h incubation) it was 84.5 ± 4.1 µM; in data set [6] (48 h incubation), 67.5 ± 5 µM; in data set [7] (48 h incubation), 96 ± 6.7 µM.
